Source: US9040533B2, “Oxime-substituted-quinoxaline-type piperidine compounds as ORL-1 modulators” (priority 2012, dated 2015)

Assays:
Experiment in all cases: biochemical
CYP2D6 = CYP2D6 (Homo sapiens, UniProt P10635)
CYP2C9 = CYP2C9 (Homo sapiens, UniProt P11712)
CYP3A4 = CYP3A4 (Homo sapiens, UniProt P08684)
CYP1A2 = target: T1, CYP1A2 (Homo sapiens, UniProt P05177)
T1 sequence (P05177 1-516): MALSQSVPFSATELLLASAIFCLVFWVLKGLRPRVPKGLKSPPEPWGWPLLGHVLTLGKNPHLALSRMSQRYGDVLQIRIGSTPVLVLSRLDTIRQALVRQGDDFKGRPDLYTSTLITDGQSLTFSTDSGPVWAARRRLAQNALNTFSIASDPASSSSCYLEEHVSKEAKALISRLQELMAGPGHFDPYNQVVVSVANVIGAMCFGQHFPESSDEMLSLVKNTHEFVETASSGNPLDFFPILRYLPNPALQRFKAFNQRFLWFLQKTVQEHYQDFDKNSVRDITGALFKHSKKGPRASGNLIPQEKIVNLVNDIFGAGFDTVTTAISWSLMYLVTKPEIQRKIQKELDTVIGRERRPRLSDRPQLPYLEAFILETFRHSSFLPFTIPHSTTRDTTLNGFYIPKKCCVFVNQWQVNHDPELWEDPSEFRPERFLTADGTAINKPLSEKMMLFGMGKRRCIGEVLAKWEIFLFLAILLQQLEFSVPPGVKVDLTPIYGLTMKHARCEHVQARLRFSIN

CYP2C19 = CYP2C19 (Homo sapiens, UniProt P33261)
Sequence of CYP2C19 (P33261 whole entry): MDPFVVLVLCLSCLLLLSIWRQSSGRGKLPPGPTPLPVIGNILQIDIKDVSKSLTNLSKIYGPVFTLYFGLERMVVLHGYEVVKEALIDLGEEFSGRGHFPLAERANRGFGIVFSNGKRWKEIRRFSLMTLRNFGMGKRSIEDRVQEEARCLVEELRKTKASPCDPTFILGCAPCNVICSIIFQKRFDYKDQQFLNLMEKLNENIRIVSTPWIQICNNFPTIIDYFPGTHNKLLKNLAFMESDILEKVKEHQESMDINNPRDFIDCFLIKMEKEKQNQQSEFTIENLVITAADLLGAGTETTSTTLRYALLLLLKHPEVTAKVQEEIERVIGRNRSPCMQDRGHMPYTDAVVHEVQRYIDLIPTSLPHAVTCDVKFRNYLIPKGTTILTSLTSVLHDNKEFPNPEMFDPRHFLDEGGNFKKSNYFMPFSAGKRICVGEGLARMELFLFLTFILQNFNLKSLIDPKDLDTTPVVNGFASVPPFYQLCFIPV

Sequence of CYP2D6 (P10635 whole entry): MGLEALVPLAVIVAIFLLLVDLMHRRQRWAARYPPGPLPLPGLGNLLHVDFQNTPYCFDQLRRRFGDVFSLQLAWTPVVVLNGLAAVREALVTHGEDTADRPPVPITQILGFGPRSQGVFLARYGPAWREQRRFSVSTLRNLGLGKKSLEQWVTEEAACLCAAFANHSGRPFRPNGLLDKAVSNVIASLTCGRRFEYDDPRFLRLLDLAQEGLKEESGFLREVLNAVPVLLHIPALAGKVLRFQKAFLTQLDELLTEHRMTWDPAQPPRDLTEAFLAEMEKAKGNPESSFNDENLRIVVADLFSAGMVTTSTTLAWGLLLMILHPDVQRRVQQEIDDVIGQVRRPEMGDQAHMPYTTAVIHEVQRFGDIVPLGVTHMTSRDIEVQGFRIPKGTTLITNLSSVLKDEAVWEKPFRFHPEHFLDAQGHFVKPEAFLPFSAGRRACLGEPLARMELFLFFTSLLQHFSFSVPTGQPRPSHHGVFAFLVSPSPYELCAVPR
Sequence of CYP3A4 (P08684 whole entry): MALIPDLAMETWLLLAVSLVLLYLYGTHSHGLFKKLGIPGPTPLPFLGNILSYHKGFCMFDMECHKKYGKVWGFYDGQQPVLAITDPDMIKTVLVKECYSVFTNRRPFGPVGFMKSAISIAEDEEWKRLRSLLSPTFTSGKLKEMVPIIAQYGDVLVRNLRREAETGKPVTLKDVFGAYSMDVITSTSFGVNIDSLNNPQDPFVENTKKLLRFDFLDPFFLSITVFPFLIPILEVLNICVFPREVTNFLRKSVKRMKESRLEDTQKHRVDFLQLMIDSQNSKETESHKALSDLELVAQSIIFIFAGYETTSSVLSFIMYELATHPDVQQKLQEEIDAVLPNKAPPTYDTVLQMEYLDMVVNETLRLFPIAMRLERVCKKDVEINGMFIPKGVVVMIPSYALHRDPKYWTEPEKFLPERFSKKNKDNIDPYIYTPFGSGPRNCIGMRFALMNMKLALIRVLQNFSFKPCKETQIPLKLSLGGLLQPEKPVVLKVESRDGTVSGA
Sequence of CYP2C9 (P11712 whole entry): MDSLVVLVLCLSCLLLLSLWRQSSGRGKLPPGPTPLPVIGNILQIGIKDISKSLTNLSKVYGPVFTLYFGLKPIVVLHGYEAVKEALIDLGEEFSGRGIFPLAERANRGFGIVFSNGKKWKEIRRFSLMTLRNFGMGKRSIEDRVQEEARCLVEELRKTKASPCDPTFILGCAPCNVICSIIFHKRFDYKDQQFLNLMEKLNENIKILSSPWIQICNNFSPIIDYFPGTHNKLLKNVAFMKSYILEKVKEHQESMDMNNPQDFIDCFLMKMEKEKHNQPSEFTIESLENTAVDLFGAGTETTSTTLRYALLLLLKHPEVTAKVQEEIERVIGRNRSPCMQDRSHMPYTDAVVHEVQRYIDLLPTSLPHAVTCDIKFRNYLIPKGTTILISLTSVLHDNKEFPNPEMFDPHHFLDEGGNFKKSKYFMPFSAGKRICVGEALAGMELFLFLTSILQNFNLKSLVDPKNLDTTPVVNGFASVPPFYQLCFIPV

Row | Structure (SMILES) | IC50 (CYP2D6) [µM] | IC50 (CYP2C9) [µM] | IC50 (CYP3A4) [µM] | IC50 (CYP1A2) [µM] | IC50 (CYP2C19) [µM]
1 | CCON=C(C(=O)O)c1nc2ccccc2n([C@H]2C[C@H]3CCC[C@@H](C2)N3C2CC3CCCC(C3)C2)c1=O (some centres unmarked) [Compound 30] | > 20 | > 20 | > 20 | > 20 | > 20
2 | CC1CC2CC(C1)CC(N1[C@@H]3CCC[C@H]1C[C@@H](n1c(=O)c(/C(CCC(=O)O)=N/OCCCN(C)C)nc4ccccc41)C3)C2 (some centres unmarked) [Compound 28] | 3 | > 20 | 6.1 | > 20 | –
3 | CC[C@@H]1C[C@H]2CC(N3[C@@H]4CCC[C@H]3CC(n3c(=O)c(/C(CCC(=O)O)=N/OCCCN(C)C)nc5ccccc53)C4)C[C@@H](C1)C2 (some centres unmarked) [Compound 35] | > 20 | > 20 | > 20 | > 20 | –
4 | CC[C@@H]1C[C@H]2CC(N3[C@@H]4CCC[C@H]3CC(n3c(=O)c(/C(CCC(=O)O)=N/OC)nc5ccccc53)C4)C[C@@H](C1)C2 (some centres unmarked) [Compound 25] | > 20 | > 20 | > 20 | > 20 | –
5 | CO/N=C(\C(=O)O)c1nc2ccccc2n([C@H]2C[C@H]3CC[C@@H](C2)N3C2CC3CCCCC(C3)C2)c1=O (stereo partly drawn) [Compound 20, (Z)-2-(4-((1R,3R)-8-(bicyclo[4.3.1]decan-8-yl)-8-azabicyclo[3.2.1]octan-3-yl)-3-oxo-3,4-dihydroquinoxalin-2-yl)-2-(methoxyimino)acetic acid] | > 20 | > 20 | > 20 | > 20 | > 20
6 | CON=C(CCC(=O)O)c1nc2ccccc2n([C@H]2C[C@H]3CC[C@@H](C2)N3C2CC3CCCCC(C3)C2)c1=O (stereo partly drawn) [Compound 12, 4-(4-((1R,3R)-8-(bicyclo[4.3.1]decan-8-yl)-8-azabicyclo[3.2.1]octan-3-yl)-3-oxo-3,4-dihydroquinoxalin-2-yl)-4-(methoxyimino)butanoic acid] | > 20 | > 20 | > 20 | > 20 | > 20
7 | CC(C)ON=C(CCC(=O)O)c1nc2ccccc2n([C@H]2C[C@H]3CC[C@@H](C2)N3C2CC3CCCCC(C3)C2)c1=O (some centres unmarked) [Compound 67] | > 20 | > 20 | > 20 | > 20 | > 20
8 | CCON=C(C(=O)O)c1nc2ccccc2n([C@H]2C[C@H]3CC[C@@H](C2)N3C2CC3CCCCC(C3)C2)c1=O (some centres unmarked) [Compound 36] | > 20 | > 20 | > 20 | > 20 | > 20
9 | O=C(O)CCC(=NO)c1nc2ccccc2n([C@H]2C[C@H]3CCC[C@@H](C2)N3C2CCCCCCCCC2)c1=O [Compound 18] | > 20 | > 20 | > 20 | > 20 | > 20
10 | C/C(=N\OCC(=O)O)c1nc2ccccc2n([C@H]2C[C@H]3CCC[C@@H](C2)N3C2CC3CCCCC(C3)C2)c1=O (stereo partly drawn) [Compound 24, 2-((E)-1-(4-((1R,3R)-9-(bicyclo[4.3.1]decan-8-yl)-9-azabicyclo[3.3.1]nonan-3-yl)-3-oxo-3,4-dihydroquinoxalin-2-yl)ethylideneaminooxy)acetic acid] | > 20 | > 20 | > 20 | > 20 | > 20
11 | NC(=O)CO/N=C(\CCC(=O)O)c1nc2ccccc2n([C@H]2C[C@H]3CCC[C@@H](C2)N3C2CC3CCCCC(C3)C2)c1=O (stereo partly drawn) [Compound 41, (E)-4-(2-amino-2-oxoethoxyimino)-4-(4-((1R,3R)-9-(bicyclo[4.3.1]decan-8-yl)-9-azabicyclo[3.3.1]nonan-3-yl)-3-oxo-3,4-dihydroquinoxalin-2-yl)butanoic acid] | > 20 | > 20 | > 20 | > 20 | > 20
12 | CCC1CC2CC(C1)CC(N1[C@@H]3CCC[C@H]1C[C@@H](n1c(=O)c(/C(CCC(=O)O)=N/OCCN(C)C)nc4ccccc41)C3)C2 (some centres unmarked) [Compound 34] | > 20 | > 20 | 17.5 | 16.1 | –
13 | CN(C)C(=O)CON=C(C(=O)O)c1nc2ccccc2n([C@H]2C[C@H]3CCC[C@@H](C2)N3C2CC3CCCC(C3)C2)c1=O (some centres unmarked) [Compound 63] | > 20 | > 20 | > 20 | > 20 | > 20
14 | CON=C(C(=O)O)c1nc2ccccc2n([C@H]2C[C@H]3COC[C@@H](C2)N3C2CC3CCCCC(C3)C2)c1=O (stereo partly drawn) [Compound 50, [4-((1R,5S,7S)-(1S,6R,8R)-9-bicyclo[4.3.1]dec-8-yl-3-oxa-9-aza-bicyclo[3.3.1]non-7-yl)-3-oxo-3,4-dihydro-quinoxalin-2-yl]-methoxyimino-acetic acid] | > 20 | > 20 | > 20 | > 20 | > 20
15 | CC(O/N=C(\C(=O)O)c1nc2ccccc2n([C@H]2C[C@H]3CCC[C@@H](C2)N3C2CC3CCCC(C3)C2)c1=O)C(N)=O (some centres unmarked) [Compound 52] | > 20 | > 20 | > 20 | > 20 | > 20
16 | COCCO/N=C(\C(=O)O)c1nc2ccccc2n([C@H]2C[C@H]3CCC[C@@H](C2)N3C2CC3CCCCC(C3)C2)c1=O (some centres unmarked) [Compound 46] | > 20 | > 20 | > 20 | > 20 | > 20
17 | CCON=C(C(=O)O)c1nc2ccccc2n([C@H]2C[C@H]3CCC[C@@H](C2)N3C2CC3CCCCC(C3)C2)c1=O (stereo partly drawn) [Compound 32, 2-(4-((1R,3R)-9-(bicyclo[4.3.1]decan-8-yl)-9-azabicyclo[3.3.1]nonan-3-yl)-3-oxo-3,4-dihydroquinoxalin-2-yl)-2-(ethoxyimino)acetic acid] | > 20 | > 20 | > 20 | > 20 | > 20
18 | CON=C(CCC(=O)O)c1nc2ccccc2n([C@H]2C[C@H]3CCC[C@@H](C2)N3C2CC3CCCC(C3)C2)c1=O (stereo partly drawn) [Compound 2, 4-[4-((1R,3R)—(S)-9-bicyclo[3.3.1]non-3-yl-9-aza-bicyclo[3.3.1]non-3-yl)-3-oxo-3,4-dihydro-quinoxalin-2-yl]-4-methoxyimino-butyric acid] | > 20 | > 20 | > 20 | > 20 | > 20
19 | C/C(=N\OCC(=O)O)c1nc2ccccc2n([C@H]2C[C@H]3CCC[C@@H](C2)N3C2CC3CCCC(C3)C2)c1=O (some centres unmarked) [Compound 16] | > 20 | > 20 | > 20 | > 20 | > 20
20 | CC(C)C(O/N=C(\C(=O)O)c1nc2ccccc2n([C@H]2C[C@H]3CCC[C@@H](C2)N3C2CC3CCCC(C3)C2)c1=O)C(N)=O (some centres unmarked) [Compound 53] | > 20 | > 20 | > 20 | > 20 | > 20
21 | CNC(=O)C(=NOCC(=O)O)c1nc2ccccc2n([C@H]2C[C@H]3CCC[C@@H](C2)N3C2CC3CCCCC(C3)C2)c1=O (some centres unmarked) [Compound 54] | > 20 | > 20 | > 20 | > 20 | > 20
22 | CCN(CC)C(=O)CO/N=C(\C(=O)O)c1nc2ccccc2n([C@H]2C[C@H]3CCC[C@@H](C2)N3C2CC3CCCC(C3)C2)c1=O (stereo partly drawn) [Compound 5, [4-((1R,3R,7S)-9-bicyclo[3.3.1]non-3-yl-9-aza-bicyclo[3.3.1]non-3-yl)-3-oxo-3,4-dihydro-quinoxalin-2-yl]-diethylcarbamoylmethoxyimino-acetic acid] | > 20 | > 20 | > 20 | > 20 | > 20
23 | COCCO/N=C(\CCC(=O)O)c1nc2ccccc2n([C@H]2C[C@H]3CCC[C@@H](C2)N3C2CC3CCCCC(C3)C2)c1=O (some centres unmarked) [Compound 56] | > 20 | > 20 | > 20 | > 20 | > 20
24 | NC(=O)CCC(=NOCC(=O)O)c1nc2ccccc2n([C@H]2C[C@H]3CCC[C@@H](C2)N3C2CC3CCCCC(C3)C2)c1=O (some centres unmarked) [Compound 59] | > 20 | > 20 | > 20 | > 20 | > 20
25 | CCO/N=C(\CCC(=O)O)c1nc2ccccc2n([C@H]2C[C@H]3CCC[C@@H](C2)N3C2CC3CC(CC)CC(C3)C2)c1=O (some centres unmarked) [Compound 26] | > 20 | > 20 | > 20 | > 20 | –
26 | CCN(CC)CCO/N=C(\CCC(=O)O)c1nc2ccccc2n(C2C[C@H]3CCC[C@@H](C2)N3C2C[C@@H]3C[C@@H](C)C[C@H](C2)C3)c1=O (some centres unmarked) [Compound 27] | 8.7 | > 20 | 8.9 | > 20 | –
27 | CC1CC2CC(C1)CC(N1[C@@H]3CCC[C@H]1C[C@@H](n1c(=O)c(/C(CCC(=O)O)=N/OCCN(C)C)nc4ccccc41)C3)C2 (some centres unmarked) [Compound 29] | 11.6 | > 20 | > 20 | > 20 | –
